Values of other authors in patent US20150141462A1, “PHARMACEUTICAL COMPOSITIONS AND METHODS FOR TREATING DRUG ADDICTION AND PREVENTING A DRUG RELAPSE” (priority 2012, published 2015).

How the values were obtained:
[1] = not given; remark: listed apart in the source
[2] = system: animal models of addiction; conditions: mGluR5 antagonists

SMILES | extinction of cocaine-induced conditioned place preference (rats) | cocaine-seeking behavior (following intravenous self-administration) | reacquisition of cocaine self-administration (in vivo) | reinstatement ([1]; following methamphetamine self-administration) | extinction following methamphetamine self-administration ([1]; in vivo) | self-administration of drugs of abuse [2]
N#Cc1cccc(C(=O)Nc2cc(-c3ccccc3)nn2-c2ccccc2)c1 [CDPPB, 3-cyano-N-(1,3-diphenyl-1H-pyrazol-5-yl)benzamide] | enhances extinction | reduces cocaine-seeking behavior | deters the reacquisition | reduced reinstatement slightly | improved extinction | 
Cc1nc(C#Cc2cccnc2)cs1 [MTEP, 3-((2-methyl-4-thiazolyl)ethynyl)pyridine] |  |  |  |  |  | reduce self-administration of virtually all drugs of abuse
Cc1cccc(C#Cc2ccccc2)n1.Cl [MPEP, 2-methyl-6-(phenylethynyl)pyridine hydrochloride] |  |  |  |  |  | reduce self-administration of virtually all drugs of abuse
